Measurements reported in patent publication US9452986B2, “6-heteroaryloxy- or 6-aryloxy-quinoline-2-carboxamides and method of use” (AbbVie Inc., priority 2014, dated 2016).

target: recombinant human Nav1.7 (Homo sapiens (Human), UniProt Q15858); assay: FRET-based membrane potential assay, recombinant human sodium channel Nav1.7; assay type: cell-based; conditions: HEK293 cells stably expressing recombinant human Nav1.7; veratridine + scorpion venom depolarization; read-out: FRET-Membrane Potential Nav1.7 IC50
Sequence (Q15858 whole entry): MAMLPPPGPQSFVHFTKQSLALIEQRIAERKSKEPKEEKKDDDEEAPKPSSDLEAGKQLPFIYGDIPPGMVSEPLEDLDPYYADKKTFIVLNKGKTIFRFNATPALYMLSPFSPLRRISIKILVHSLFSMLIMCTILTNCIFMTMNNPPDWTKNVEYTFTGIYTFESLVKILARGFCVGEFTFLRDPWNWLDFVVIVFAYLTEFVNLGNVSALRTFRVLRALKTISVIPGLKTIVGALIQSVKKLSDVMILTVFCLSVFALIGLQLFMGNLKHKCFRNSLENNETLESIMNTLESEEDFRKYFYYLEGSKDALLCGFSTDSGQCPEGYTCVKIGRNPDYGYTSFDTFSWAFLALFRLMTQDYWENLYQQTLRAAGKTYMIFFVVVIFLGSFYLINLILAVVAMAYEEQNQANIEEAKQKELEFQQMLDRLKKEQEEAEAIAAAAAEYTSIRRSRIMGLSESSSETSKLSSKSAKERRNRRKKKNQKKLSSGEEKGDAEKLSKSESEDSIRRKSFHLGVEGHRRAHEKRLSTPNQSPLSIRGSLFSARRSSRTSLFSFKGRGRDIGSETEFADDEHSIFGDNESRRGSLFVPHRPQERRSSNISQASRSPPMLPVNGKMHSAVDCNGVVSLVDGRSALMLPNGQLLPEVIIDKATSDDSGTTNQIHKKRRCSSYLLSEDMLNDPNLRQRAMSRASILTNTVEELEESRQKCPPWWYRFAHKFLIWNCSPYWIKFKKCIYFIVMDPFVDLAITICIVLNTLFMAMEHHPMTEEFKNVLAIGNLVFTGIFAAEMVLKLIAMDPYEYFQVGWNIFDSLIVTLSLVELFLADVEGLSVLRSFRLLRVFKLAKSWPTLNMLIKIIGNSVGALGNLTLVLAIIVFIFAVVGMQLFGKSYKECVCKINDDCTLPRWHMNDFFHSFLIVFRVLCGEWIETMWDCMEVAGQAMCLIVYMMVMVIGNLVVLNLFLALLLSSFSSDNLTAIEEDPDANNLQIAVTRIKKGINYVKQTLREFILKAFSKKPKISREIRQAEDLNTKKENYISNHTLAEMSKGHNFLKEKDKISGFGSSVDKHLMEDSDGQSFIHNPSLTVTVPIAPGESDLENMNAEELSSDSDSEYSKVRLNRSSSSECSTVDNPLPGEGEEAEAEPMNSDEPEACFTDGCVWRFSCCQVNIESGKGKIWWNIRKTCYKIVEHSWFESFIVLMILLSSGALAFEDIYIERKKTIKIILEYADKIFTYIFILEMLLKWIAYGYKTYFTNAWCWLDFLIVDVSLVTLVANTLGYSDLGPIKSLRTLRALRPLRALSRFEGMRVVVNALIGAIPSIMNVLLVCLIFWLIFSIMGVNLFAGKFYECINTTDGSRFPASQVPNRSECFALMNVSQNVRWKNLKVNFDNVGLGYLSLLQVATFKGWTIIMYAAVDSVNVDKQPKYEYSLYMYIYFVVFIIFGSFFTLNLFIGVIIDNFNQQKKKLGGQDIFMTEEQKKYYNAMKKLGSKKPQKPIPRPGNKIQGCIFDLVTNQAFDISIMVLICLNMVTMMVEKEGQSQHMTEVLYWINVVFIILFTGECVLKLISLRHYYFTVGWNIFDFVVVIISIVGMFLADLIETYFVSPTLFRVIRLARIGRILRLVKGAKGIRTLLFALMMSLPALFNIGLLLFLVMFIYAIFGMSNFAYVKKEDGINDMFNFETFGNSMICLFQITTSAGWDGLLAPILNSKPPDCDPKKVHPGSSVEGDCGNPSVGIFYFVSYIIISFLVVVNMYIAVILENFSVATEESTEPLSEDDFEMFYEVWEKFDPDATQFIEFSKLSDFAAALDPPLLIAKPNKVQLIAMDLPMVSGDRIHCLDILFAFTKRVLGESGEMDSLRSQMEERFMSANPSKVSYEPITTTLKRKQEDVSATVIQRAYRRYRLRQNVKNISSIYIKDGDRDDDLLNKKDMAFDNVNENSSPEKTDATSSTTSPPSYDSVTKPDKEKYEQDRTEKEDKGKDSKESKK
How it was run: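 Channel activation used veratridine at its EC80, set by a dilution curve each experiment, together with Leiurus scorpion venom, added 3 min after compound. Membrane-potential ratio signals from FLIPR Tetra in HEPES-buffered HBSS were fitted to a four-parameter Hill equation for percent inhibition and IC50.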

| Compound | IC50 [nM] |
| --- | --- |
| O=C(c1ccc2cc(Oc3ccc(C(F)(F)F)cn3)ccc2n1)N1C[C@@H]2C[C@H]1CN2 [Example 3, (1S,4S)-2,5-diazabicyclo[2.2.1]hept-2-yl(6-{[5-(trifluoromethyl)pyridin-2-yl]oxy}quinolin-2-yl)methanone] | 1450 |
| O=C(N[C@@H]1CCS(=O)(=O)C1)c1ccc2cc(Oc3ccc(C(F)(F)F)cn3)ccc2n1 [Example 5, N-[(3R)-1,1-dioxidotetrahydrothiophen-3-yl]-6-{[5-(trifluoromethyl)pyridin-2-yl]oxy}quinoline-2-carboxamide] | 262 |
| NC1CN(C(=O)c2ccc3cc(Oc4ccc(C(F)(F)F)cn4)ccc3n2)C1 [Example 8, (3-aminoazetidin-1-yl)(6-{[5-(trifluoromethyl)pyridin-2-yl]oxy}quinolin-2-yl)methanone] | 232 |
| N#CCCCNC(=O)c1ccc2cc(Oc3ccc(C(F)(F)F)cn3)ccc2n1 [Example 595, N-(3-cyanopropyl)-6-{[5-(trifluoromethyl)pyridin-2-yl]oxy}quinoline-2-carboxamide] | 1130 |
| O=C(NC1CCC1)c1ccc2cc(Oc3ccc(C(F)(F)F)cn3)ccc2n1 [Example 596, N-cyclobutyl-6-{[5-(trifluoromethyl)pyridin-2-yl]oxy}quinoline-2-carboxamide] | 1760 |
| O=C(c1ccc2cc(Oc3ccc(C(F)(F)F)cn3)ccc2n1)N1CCNCC1C(F)(F)F (stereo not drawn) [Example 598, [2-(trifluoromethyl)piperazin-1-yl](6-{[5-(trifluoromethyl)pyridin-2-yl]oxy}quinolin-2-yl)methanone] | 2980 |
| COCCCNC(=O)c1ccc2cc(Oc3ccc(C(F)(F)F)cn3)ccc2n1 [Example 599, N-(3-methoxypropyl)-6-{[5-(trifluoromethyl)pyridin-2-yl]oxy}quinoline-2-carboxamide] | 1590 |
| O=C(NCC1CSC1)c1ccc2cc(Oc3ccc(C(F)(F)F)cn3)ccc2n1 [Example 600, N-(thietan-3-ylmethyl)-6-{[5-(trifluoromethyl)pyridin-2-yl]oxy}quinoline-2-carboxamide] | 1760 |
| O=C(NCC1C[S+]([O-])C1)c1ccc2cc(Oc3ccc(C(F)(F)F)cn3)ccc2n1 (stereo not drawn) [Example 601, N-[(1-oxidothietan-3-yl)methyl]-6-{[5-(trifluoromethyl)pyridin-2-yl]oxy}quinoline-2-carboxamide] | 2510 |
| O=C(NCC1CS(=O)(=O)C1)c1ccc2cc(Oc3ccc(C(F)(F)F)cn3)ccc2n1 [Example 602, N-[(1,1-dioxidothietan-3-yl)methyl]-6-{[5-(trifluoromethyl)pyridin-2-yl]oxy}quinoline-2-carboxamide] | 1070 |
| O=C(NC1CC(F)C1)c1ccc2cc(Oc3ccc(C(F)(F)F)cn3)ccc2n1 (stereo not drawn) [Example 604, N-(3-fluorocyclobutyl)-6-{[5-(trifluoromethyl)pyridin-2-yl]oxy}quinoline-2-carboxamide] | 3010 |
| O=C(NCCN1CCOC1=O)c1ccc2cc(Oc3ccc(C(F)(F)F)cn3)ccc2n1 [Example 605, N-[2-(2-oxo-1,3-oxazolidin-3-yl)ethyl]-6-{[5-(trifluoromethyl)pyridin-2-yl]oxy}quinoline-2-carboxamide] | 2880 |
| O=C(NCCc1ccccn1)c1ccc2cc(Oc3ccc(C(F)(F)F)cn3)ccc2n1 [Example 606, N-[2-(pyridin-2-yl)ethyl]-6-{[5-(trifluoromethyl)pyridin-2-yl]oxy}quinoline-2-carboxamide] | 856 |
| O=C(NCCCc1ccccn1)c1ccc2cc(Oc3ccc(C(F)(F)F)cn3)ccc2n1 [Example 607, N-[3-(pyridin-2-yl)propyl]-6-{[5-(trifluoromethyl)pyridin-2-yl]oxy}quinoline-2-carboxamide] | 910 |
| O=C(NCCCN1CCCC1=O)c1ccc2cc(Oc3ccc(C(F)(F)F)cn3)ccc2n1 [Example 608, N-[3-(2-oxopyrrolidin-1-yl)propyl]-6-{[5-(trifluoromethyl)pyridin-2-yl]oxy}quinoline-2-carboxamide] | 2700 |
| O=C1CC(CNC(=O)c2ccc3cc(Oc4ccc(C(F)(F)F)cn4)ccc3n2)CN1 (stereo not drawn) [Example 609, N-[(5-oxopyrrolidin-3-yl)methyl]-6-{[5-(trifluoromethyl)pyridin-2-yl]oxy}quinoline-2-carboxamide] | 4500 |
| CC(=O)NCC(C)CNC(=O)c1ccc2cc(Oc3ccc(C(F)(F)F)cn3)ccc2n1 (stereo not drawn) [Example 610, N-(3-acetamido-2-methylpropyl)-6-{[5-(trifluoromethyl)pyridin-2-yl]oxy}quinoline-2-carboxamide] | 2760 |
| CC(=O)NCCCNC(=O)c1ccc2cc(Oc3ccc(C(F)(F)F)cn3)ccc2n1 [Example 613, N-(3-acetamidopropyl)-6-{[5-(trifluoromethyl)pyridin-2-yl]oxy}quinoline-2-carboxamide] | 2210 |
| O=C1CCC2N1CCCN2C(=O)c1ccc2cc(Oc3ccc(C(F)(F)F)cn3)ccc2n1 (stereo not drawn) [Example 614, 1-[(6-{[5-(trifluoromethyl)pyridin-2-yl]oxy}quinolin-2-yl)carbonyl]hexahydropyrrolo[1,2-a]pyrimidin-6(2H)-one] | 12200 |
| O=C(NCCC1CS(=O)(=O)C1)c1ccc2cc(Oc3ccc(C(F)(F)F)cn3)ccc2n1 [Example 615, N-[2-(1,1-dioxidothietan-3-yl)ethyl]-6-{[5-(trifluoromethyl)pyridin-2-yl]oxy}quinoline-2-carboxamide] | 2320 |
| O=C(NC1CC(F)C1)c1ccc2cc(Oc3ccc(C(F)F)cn3)ccc2n1 (stereo not drawn) [Example 617, 6-{[5-(difluoromethyl)pyridin-2-yl]oxy}-N-(3-fluorocyclobutyl)quinoline-2-carboxamide] | 2780 |
| [cis-2,2-dimethyltetrahydro-5H-[1,3]dioxolo[4,5-c]pyrrol-5-yl](6-{[5-(trifluoromethyl)pyridin-2-yl]oxy}quinolin-2-yl)methanone [Example 373] | 3700 |
| {2-[(dimethylamino)methyl]morpholin-4-yl}(6-{[5-(trifluoromethyl)pyridin-2-yl]oxy}quinolin-2-yl)methanone [Example 374] | 970 |

same assay, conditions: read-out: FRET-Membrane Potential Nav1.7 IC50

| Compound | IC50 [nM] |
| --- | --- |
| O=C(c1ccc2cc(Oc3ccc(C(F)(F)F)cn3)ccc2n1)N1CCNC(C(F)F)C1 (stereo not drawn) [Example 594, [3-(difluoromethyl)piperazin-1-yl](6-{[5-(trifluoromethyl)pyridin-2-yl]oxy}quinolin-2-yl)methanone] | 7590 |
| CN(CCS(C)(=O)=O)C(=O)c1ccc2cc(Oc3ccc(C(F)(F)F)cn3)ccc2n1 [Example 611, N-methyl-N-[2-(methylsulfonyl)ethyl]-6-{[5-(trifluoromethyl)pyridin-2-yl]oxy}quinoline-2-carboxamide] | 4990 |
| CS(=O)(=O)CCCCNC(=O)c1ccc2cc(Oc3ccc(C(F)(F)F)cn3)ccc2n1 [Example 612, N-[4-(methylsulfonyl)butyl]-6-{[5-(trifluoromethyl)pyridin-2-yl]oxy}quinoline-2-carboxamide] | 2930 |
| COCC1(F)CCN(C(=O)c2ccc3cc(Oc4ccc(C(F)(F)F)cn4)ccc3n2)CC1 [Example 618, [4-fluoro-4-(methoxymethyl)piperidin-1-yl](6-{[5-(trifluoromethyl)pyridin-2-yl]oxy}quinolin-2-yl)methanone] | 2690 |

test system: osteoarthritic rats; assay: Osteoarthritic (OA) pain induced by sodium monoiodoacetate (MIA), hind limb grip force; assay type: in vivo, rat; conditions: Rattus norvegicus, 480 h, OA dose 10 mg/kg; rat, 20 days following MIA injection, hind limb grip force; read-out: OA MPE
Protocol: Osteoarthritic (OA) Pain Induced by Sodium Monoiodoacetate (MIA)
Pain behavior was assessed by measurement of hind limb grip force (GF) in adult osteoarthritic rats. Male Sprague Dawley rats, obtained from Charles River Laboratories, (Wilmington, Mass.), weighing 150-175 g, were injected in the unilateral knee join with a single intra-articular injection of sodium monoiodoacetate (MIA, 3 mg/rat). All rats were tested at 20 days following MIA injection. A behavioral measure of activity-induced pain was carried out. Measurements of the peak hind limb grip force were conducted by recording the maximum compressive force (CFmax), in grams of force, exerted on a hind limb strain gauge setup, in a commercially available grip force measurement system (Columbus Instruments, Columbus, Ohio).
During testing, each rat was gently restrained by grasping it around its rib cage and then allowed to grasp the wire mesh frame attached to the strain gauge. The experimenter then moved the animal in a rostral-to-caudal direction until the grip was broken. Each rat was sequentially tested twice at an approximately 2-3 minute interval to obtain a raw mean grip force (CFmax). This raw mean grip force data was in turn converted to a maximum hindlimb cumulative compressive force (CFmax), as the grams of force/kg of body weight, for each animal.
For evaluating the compound effects, the hind limb grip force was conducted 20 days following the intra-articular injection of MIA. A group of age-matched naïve (not injected with MIA) animals was added as a comparator to the drug-dosed groups. The vehicle control response for each group of MIA-treated animals was defined as the 0% response (0% effect), whereas the naïve control group was defined as the normal response and as 100% effect. The % effect for each dose group was expressed as % return of response to normalcy, compared to the naïve group. A percent maximal possible effect (% MPE) of testing compound was calculated according to the formula: (Treatment CFmax−Vehicle CFmax)/Vehicle CFmax]×100). Higher % effect numbers indicate increased relief from the pain in the model, with 100% indicating a return to the level of response seen in normal (non-osteoarthritic) animals. All experiments evaluating drug effects in this model were conducted in a randomized blinded fashion.
The animals were housed in Association for Assessment and Accreditation of Laboratory Animal Care (AAALAC) approved facilities at AbbVie Inc. in a temperature-regulated environment under a controlled 12-hour light-dark cycle, with lights on at 6:00 a.m. Food and water were available ad libitum at all times except during testing. All testing was done following procedures outlined in protocols approved by AbbVie Inc.'s Institutional Animal Care and Use Committee.

| Compound | inhibition in vivo at 10 mg/kg [%] |
| --- | --- |
| CS(=O)(=O)C1CN(C(=O)c2ccc3cc(Oc4ccc(C(F)(F)F)cn4)ccc3n2)C1 [Example 29, [3-(methylsulfonyl)azetidin-1-yl](6-{[5-(trifluoromethyl)pyridin-2-yl]oxy}quinolin-2-yl)methanone] | 20 |

same assay, conditions: Rattus norvegicus, 480 h, OA dose 30 mg/kg; rat, 20 days following MIA injection, hind limb grip force; read-out: OA MPE

| Compound | inhibition in vivo at 30 mg/kg [%] |
| --- | --- |
| O=C(c1ccc2cc(Oc3ccc(C(F)(F)F)cn3)ccc2n1)N1C[C@@H]2C[C@H]1CN2 [Example 3, (1S,4S)-2,5-diazabicyclo[2.2.1]hept-2-yl(6-{[5-(trifluoromethyl)pyridin-2-yl]oxy}quinolin-2-yl)methanone] | 46 |
| O=C(N[C@@H]1CCS(=O)(=O)C1)c1ccc2cc(Oc3ccc(C(F)(F)F)cn3)ccc2n1 [Example 5, N-[(3R)-1,1-dioxidotetrahydrothiophen-3-yl]-6-{[5-(trifluoromethyl)pyridin-2-yl]oxy}quinoline-2-carboxamide] | 27 |
| CC(=O)c1ccc(Oc2ccc3nc(C(=O)N4CCNCC4)ccc3c2)cc1 [Example 7, 1-(4-{[2-(piperazin-1-ylcarbonyl)quinolin-6-yl]oxy}phenyl)ethanone] | 51 |
| NC1CN(C(=O)c2ccc3cc(Oc4ccc(C(F)(F)F)cn4)ccc3n2)C1 [Example 8, (3-aminoazetidin-1-yl)(6-{[5-(trifluoromethyl)pyridin-2-yl]oxy}quinolin-2-yl)methanone] | 91 |
| O=C(c1ccc2cc(Oc3ccc(OC(F)(F)F)cn3)ccc2n1)N1CCNCC1 [Example 431, piperazin-1-yl(6-{[5-(trifluoromethoxy)pyridin-2-yl]oxy}quinolin-2-yl)methanone] | 73 |
